Source: US10882856B2 (BeiGene, Ltd., priority 2017, dated 2021)

Columns and labels:
IDO1 [1] = target: T1, IDO1 (Homo sapiens, UniProt P14902); experiment: Hela cell-based IDO1 assay; details: Hela cells
Procedure, shortened: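 HeLa cells were seeded at 8000 per well in 96-well plates in phenol red-free DMEM with 10% FBS. After 4 hours, DMSO-diluted compound dilutions were added with IFN-γ (final 100 ng/mL) and 0.4 mM L-Trp, and cells were kept 48 hours at 37 °C, 5% CO2. Supernatant was deproteinised with trichloroacetic acid, and kynurenine was measured at 480 nm after adding 2% 4-(dimethylamino)benzaldehyde. Potency came from four-parameter logistic fits in XLfit.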

[2] = target: T2, cellular TDO2 in HEK293-TDO2 cells (Homo sapiens, UniProt P48775); experiment: 293-TDO2 cell-based assay (Kyn colorimetric); details: 48 hours of incubation
T2 construct: expressed in transfected cells; host or cells: HEK293 (ATCC), stably transfected
Procedure, shortened: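 HEK293 cells stably expressing TDO2 (10000/well, phenol red-free DMEM, 10% FBS) were dosed 4 h after plating and incubated 48 h at 37° C. Supernatant Kyn was measured after TCA precipitation by 4-(dimethylamino)benzaldehyde colour at 480 nm. IC50 came from four-parameter logistic fits.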

IDO1 [3] = target: T1, IDO1; experiment: IDO1 enzymatic assay; type: biochemical; set-up: His tag (N); made in house; host or cells: E. coli; details: read-out: Enzyme IC50 IDO1
Procedure, shortened: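 Recombinant N-terminally His-tagged IDO1 purified from E. coli (50 nM) was incubated with compound or DMSO and 1.3 mM D-tryptophan, 5 mM L-ascorbic acid, methylene blue and 0.4 mg/mL catalase. The buffer was 50 mM potassium phosphate pH 7.5 with 0.1% BSA, at 24 °C for 1.5 hours. N'-formylkynurenine formation was then read continuously at 321 nm for 1 hour, and activity was taken as the slope. IC50 was calculated from remaining enzyme activity across increasing compound concentrations.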

T1 sequence (P14902 whole entry): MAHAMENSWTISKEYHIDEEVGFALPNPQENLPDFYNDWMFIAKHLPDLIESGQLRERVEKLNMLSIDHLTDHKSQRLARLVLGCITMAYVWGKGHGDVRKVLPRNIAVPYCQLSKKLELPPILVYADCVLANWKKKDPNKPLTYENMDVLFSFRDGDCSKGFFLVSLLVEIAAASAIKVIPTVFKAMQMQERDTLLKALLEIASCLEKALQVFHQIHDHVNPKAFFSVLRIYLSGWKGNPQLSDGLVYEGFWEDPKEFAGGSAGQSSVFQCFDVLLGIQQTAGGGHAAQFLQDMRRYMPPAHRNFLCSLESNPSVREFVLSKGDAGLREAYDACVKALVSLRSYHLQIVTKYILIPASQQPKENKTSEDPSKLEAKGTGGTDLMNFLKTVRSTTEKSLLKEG
T2 sequence (P48775 whole entry): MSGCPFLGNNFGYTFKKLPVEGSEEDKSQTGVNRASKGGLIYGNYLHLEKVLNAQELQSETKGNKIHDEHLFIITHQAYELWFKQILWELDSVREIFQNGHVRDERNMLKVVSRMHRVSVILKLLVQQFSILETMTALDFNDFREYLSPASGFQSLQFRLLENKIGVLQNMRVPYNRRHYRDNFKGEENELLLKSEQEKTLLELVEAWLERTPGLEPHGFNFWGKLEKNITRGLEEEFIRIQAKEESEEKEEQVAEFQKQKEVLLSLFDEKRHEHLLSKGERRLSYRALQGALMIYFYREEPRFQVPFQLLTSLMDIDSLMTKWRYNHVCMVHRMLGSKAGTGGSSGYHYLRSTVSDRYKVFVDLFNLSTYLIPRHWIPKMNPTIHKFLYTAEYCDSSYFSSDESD

Row | Structure (SMILES) | EC50 (IDO1 [1]) [nM] | EC50 [2] [nM] | IC50 (IDO1 [3]) [nM]
1 | O[C@@H](c1c(C2CC2)ccn2cncc12)[C@H]1CC[C@H](c2ccccc2F)CC1 (single isomer, unassigned) [Example C108b] | > 10000 | > 10000 | 7300
2 | OC(c1c(C2CC2)ccn2cncc12)C1CCC(c2ccnc3c(F)cccc23)CC1 (stereo not drawn) [Example C129, (7-cyclopropylimidazo[1,5-a]pyridin-8-yl)(4-(8-fluoroquinolin-4-yl)cyclohexyl)methanol] | 51 | > 10000 | 33
3 | Cc1cccc(C2CCC(C(O)c3c(C4CC4)ccn4cncc34)CC2)c1 (racemic) [Example C111, (7-cyclopropylimidazo[1,5-a]pyridin-8-yl)(4-(m-tolyl)cyclohexyl)methanol] | 200 | > 10000 | 82
4 | OC(c1c(C2CC2)ccn2cncc12)C1CCN(c2cccc(F)c2)CC1 (stereo not drawn) [Example C138, (7-cyclopropylimidazo[1,5-a]pyridin-8-yl)(1-(3-fluorophenyl)piperidin-4-yl)methanol] | 149 | > 10000 | 67
5 | O[C@H](c1c(C2CC2)ccn2cncc12)[C@H]1CC[C@H](c2ccnc3ccccc32)CC1 (single isomer, unassigned) [Example C130a] | 44 | > 10000 | 17
6 | O[C@@H](c1c(C2CC2)ccn2cncc12)[C@H]1CC[C@H](c2ccc(C(F)(F)F)cc2)CC1 (single isomer, unassigned) [Example C115b] | 9450 | > 10000 | > 10000
7 | OC(c1c(C2CC2)ccn2cncc12)C1CCC(c2cccc(Cl)c2)CC1 (stereo not drawn) [Example C133, (4-(3-chlorophenyl)cyclohexyl)(7-cyclopropylimidazo[1,5-a]pyridin-8-yl)methanol] | 256 | > 10000 | 88
8 | COc1cccc([C@H]2CC[C@H]([C@@H](O)c3c(C4CC4)ccn4cncc34)CC2)c1 (single isomer, unassigned) [Example C114b] | > 10000 | > 10000 | 4700
9 | OC(c1c(C2CC2)ccn2cncc12)C1CCN(c2cccc(Cl)c2)CC1 (stereo not drawn) [Example C140, (1-(3-chlorophenyl)piperidin-4-yl)(7-cyclopropylimidazo[1,5-a]pyridin-8-yl)methanol] | 304 | > 10000 | 140
10 | COc1cccc(C2CCC(C(O)c3c(C4CC4)ccn4cncc34)CC2)c1 (stereo not drawn) [Example C114, (7-cyclopropylimidazo[1,5-a]pyridin-8-yl)(4-(3-methoxyphenyl)cyclohexyl)methanol] | 195 | > 10000 | 51
11 | OC(c1c(C2CC2)ccn2cncc12)C1CCC(c2ccccc2F)CC1 (racemic) [Example C108, (7-cyclopropylimidazo[1,5-a]pyridin-8-yl)(4-(2-fluorophenyl)cyclohexyl)methanol] | 320 | > 10000 | 59
12 | OC(c1c(C2CC2)ccn2cncc12)C1CCC(c2ccc(Cl)cc2)CC1 (racemic) [Example C102, (4-(4-chlorophenyl)cyclohexyl)(7-cyclopropylimidazo[1,5-a]pyridin-8-yl)methanol] | 261 | > 10000 | 100
13 | COc1ccc([C@H]2CC[C@H]([C@@H](O)c3c(C4CC4)ccn4cncc34)CC2)cc1 [Example C101b, (R)-(7-cyclopropylimidazo[1,5-a]pyridin-8-yl)(4-(4-methoxyphenyl)cyclohexyl)methanol] | > 10000 | > 10000 | 9400

The remaining lines, values ahead:

Row | EC50 (IDO1 [1]) [nM] | EC50 [2] [nM] | IC50 (IDO1 [3]) [nM] | Structure (SMILES)
14 | 6410 | > 10000 | 8000 | O[C@@H](c1c(C2CC2)ccc2cncn12)[C@H]1CC[C@H](c2cc(F)cc(F)c2)CC1 (single isomer, unassigned) [Example D144b]
15 | 460 | > 10000 | 14 | CN(C)C(=O)c1ccc([C@H]2CC[C@H]([C@H](O)c3c(C4CC4)ccc4cncn34)CC2)cc1 (single isomer, unassigned) [Example D125a]
16 | 7940 | > 10000 | 8820 | O[C@@H](c1c(C2CC2)ccc2cncn12)C1CCN(c2ccccc2)CC1 (single isomer, unassigned) [Example D170b]
17 | 42 | > 10000 | 38 | CC(C)c1ccc2cncn2c1C(O)C1CCC(c2cccc(Cl)c2)CC1 (stereo not drawn) [Example D168, (4-(3-chlorophenyl)cyclohexyl)(6-isopropylimidazo[1,5-a]pyridin-5-yl)methanol]
18 | 98 | > 10000 | 62 | OC(c1c(C2CC2)ccc2cncn12)C1CCC(c2ccc(F)c3ccccc23)CC1 (stereo not drawn) [Example D137, (6-cyclopropylimidazo[1,5-a]pyridin-5-yl)(4-(4-fluoronaphthalen-1-yl)cyclohexyl)methanol]
19 | 496 | > 10000 | 44 | OC(c1c(C2CC2)ccc2cncn12)C1CCC(c2ccc3sccc3c2)CC1 (stereo not drawn) [Example D133, (4-(benzo[b]thiophen-5-yl)cyclohexyl)(6-cyclopropylimidazo[1,5-a]pyridin-5-yl)methanol]
20 | 56 | > 10000 | 21 | O[C@H](c1c(C2CC2)ccc2cncn12)[C@H]1CC[C@H](c2ccc(F)c(Cl)c2)CC1 (single isomer, unassigned) [Example D129a]
21 | 42 | > 10000 | 24 | OC(c1c(C2CC2)ccc2cncn12)C1CCC(c2ccnc3ccccc23)CC1 (stereo not drawn) [Example D140, (6-cyclopropylimidazo[1,5-a]pyridin-5-yl)(4-(quinolin-4-yl)cyclohexyl)methanol]
22 | 210 | > 10000 | 28 | COc1ccc(C2CCC(C(O)c3c(C4CC4)ccc4cncn34)CC2)c(F)c1 (stereo not drawn) [Example D146, (6-cyclopropylimidazo[1,5-a]pyridin-5-yl)(4-(2-fluoro-4-methoxyphenyl)cyclohexyl)methanol]
23 | 6750 | > 10000 | 5200 | O[C@@H](c1c(C2CC2)ccc2cncn12)[C@H]1CC[C@H](c2cccc3ccccc32)CC1 (single isomer, unassigned) [Example D135b]
24 | 122 | > 10000 | 19 | COc1ccc([C@H]2CC[C@H](C(O)c3c(C4CC4)ccc4cncn34)CC2)c(F)c1 (single isomer, unassigned) [Example D146a]
25 | > 10000 | > 10000 | > 10000 | N#Cc1ccc([C@H]2CC[C@H]([C@@H](O)c3c(C4CC4)ccc4cncn34)CC2)cc1 (single isomer, unassigned) [Example D110b]
26 | 107 | > 10000 | 44 | OC(c1c(C2CC2)ccc2cncn12)C1CCC(c2cccc(Cl)c2)CC1 (stereo not drawn) [Example D116, (4-(3-chlorophenyl)cyclohexyl)(6-cyclopropylimidazo[1,5-a]pyridin-5-yl)methanol]
27 | 5230 | > 10000 | 970 | CNC(=O)c1ccc([C@H]2CC[C@H]([C@@H](O)c3c(C4CC4)ccc4cncn34)CC2)cc1 (single isomer, unassigned) [Example D124b]
28 | 87 | > 10000 | 70 | OC(c1c(C2CC2)ccc2cncn12)C1CCC(c2csc3ccccc23)CC1 (stereo not drawn) [Example D155, (4-(benzo[b]thiophen-3-yl)cyclohexyl)(6-cyclopropylimidazo[1,5-a]pyridin-5-yl)methanol]
29 | 163 | > 10000 | 38 | OC(c1c(C2CC2)ccc2cncn12)C1CCC(c2ccc(Cl)cc2)CC1 (stereo not drawn) [Example D103, (4-(4-chlorophenyl)cyclohexyl)(6-cyclopropylimidazo[1,5-a]pyridin-5-yl)methanol]
30 | 1750 | > 10000 | 1800 | O[C@@H](c1c(C2CC2)ccc2cncn12)[C@H]1CC[C@H](c2ccnc3ccccc32)CC1 (single isomer, unassigned) [Example D140b]
31 | > 10000 | > 10000 | 1400 | O[C@@H](c1cc(Cl)cc2cncn12)[C@H]1CC[C@H](c2cccc3ccccc32)CC1 (single isomer, unassigned) [Example E103b]
32 | 578 | > 10000 | 47 | OC(c1c(C2CC2)ccc2cncn12)C1CCC(c2ccc(Cl)cc2F)CC1 (stereo not drawn) [Example D131, (4-(4-chloro-2-fluorophenyl)cyclohexyl)(6-cyclopropylimidazo[1,5-a]pyridin-5-yl)methanol]
33 | 228 | > 10000 | 28 | Nc1ccc(C2CCC(C(O)c3c(C4CC4)ccc4cncn34)CC2)cc1 (stereo not drawn) [Example D122, (4-(4-aminophenyl)cyclohexyl)(6-cyclopropylimidazo[1,5-a]pyridin-5-yl)methanol]
34 | 5500 | > 10000 | > 10000 | O[C@@H](c1c(C2CC2)ccc2cncn12)C1CCN(c2ccc(Cl)cc2)CC1 (single isomer, unassigned) [Example D174b]
